Consider three molecules from patent US20240166726A1, “UNIVERSAL TARGETING STRATEGY TO INHIBIT REPLICATION OF ZIKV AND FLAVIVIRUSES” (Sanford Burnham Prebys Medical Discovery Institute, priority 2022, published 2024).

The term IC50 denotes the concentration that inhibits the measured activity by half.

In experiment [1] the test system is DENV2 replicons. Conditions: cell-based assays, previously shown; cited from earlier work.
The target of experiment [2] is T1, ZIKV NS2B-NS3pro (Zika virus, UniProt A0A024B7W1).
T1 construct: hydrophilic cytoplasmic portion of NS2B (residues 48-94) was linked to the NS3 protease domain; was linked to the NS3 protease domain via a 9-residue linker L; His tag (N, cleaved yes); made in house; host or cells: E. coli BL21 (DE3) Codon Plus
T1 sequence (A0A024B7W1 1503-1680): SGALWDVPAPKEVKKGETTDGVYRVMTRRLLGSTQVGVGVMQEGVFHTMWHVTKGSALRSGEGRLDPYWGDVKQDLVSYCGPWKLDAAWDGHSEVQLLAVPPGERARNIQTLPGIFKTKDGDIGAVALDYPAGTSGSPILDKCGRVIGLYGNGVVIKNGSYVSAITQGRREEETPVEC
T1 sequence (A0A024B7W1 1420-1466): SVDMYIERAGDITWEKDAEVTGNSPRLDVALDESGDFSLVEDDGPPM
As to the kind of experiment: Fluorescent proteinase activity assay (Pyr-RTKR-AMC cleavage). Format: biochemical. The method, then: Fluorescent proteinase activity assay and IC50 determination. The peptide cleavage activity assays with purified ZIKV NS2B-NS3pro polypeptides were performed in 0.2 ml TBS containing 20% glycerol and 0.005% Brij 35 containing 20 μM of the cleavage peptide pyroglutamic acid Pyr-Arg-Thr-Lys-Arg-7-amino-4-methylcoumarin (Pyr-RTKR-AMC) and 10 nM enzyme. The reaction velocity was monitored continuously at λex=360 nm and λem=465 nm on a Tecan fluorescence spectrophotometer (Männedorf, Switzerland). To determine the IC50 values of the inhibitory compounds, ZIKV NS2B-NS3pro constructs (20 nM) were preincubated for 30 min at 20° C. with various concentrations of compounds in 0.1 ml TBS containing 20% glycerol and 0.005% Brij 35. Pyr-RTKR-AMC substrate (20 μM) was then added in 0.1 ml of the same buffer. IC50 values were calculated by determining the compound concentration required to obtain 50% of the maximal inhibition of NS2B-NS3pro activity against Pyr-RTKR-AMC. GraphPad Prism was used as fitting software. All assays were performed in triplicate in 96-well plates.
Fluorogenic substrate cleavage assays were performed to test whether binding of RNA interferes with the proteolytic activity of NS2B-NS3pro.

Experiment [3] relates to WNV replicons. Conditions: cell-based assays, previously shown; cited from earlier work.
Experiment [4] addresses T2, DENV2 NS2B-NS3pro (Dengue virus type 2, UniProt P29990).
T2 construct: comprises an NS2B polypeptide that associates with a proteolytic N-terminal fragment of NS3 polypeptide (NS3pro); a proteolytic N-terminal fragment of NS3 polypeptide (NS3pro) to form NS2B-NS3pro
In words: Inhibition of NS2B-NS3pro proteolysis, DENV2. Format: biochemical. Conditions: in vitro. From the text:
(§1) The open conformation of NS2B-NS3pro is formed by rearrangement/dissociation of the NS2B cofactor from the C-terminal half of NS3pro, leading to a loss of proteolytic activity. NS2B dissociation uncovers a hydrophobic cleft in NS3pro, which presents a druggable pocket that is relatively conserved between the flaviviruses. Allosteric inhibitors of ZIKV, WNV, and DENV2 NS2B-NS3pro were designed in silico to bind a region of NS2B-NS3pro distant from the proteolytic active site. […] RNA binding to ZIKV NS2B-NS3pro was tested with a sub-library of these inhibitors, and some compounds were potent inhibitors of RNA binding to ZIKV NS2B-NS3pro, as depicted in FIG. 7. In Top of FIG. 7, small molecule allosteric inhibitors (10 μM) targeting open/super-open conformations of ZIKV NS2B-NS3pro block ssRNA binding. Fluorescent polarization (%) using FAM labeled ssRNA (20 poly-rU). * p<0.05, […], *** p<0.0005, […] by two-tailed unpaired t-test with Welch's correction. In Bottom of FIG. 7, IC50 for inhibition of ZIKV, WNV, and DENV2 NS2B-NS3pro proteolysis by the indicated inhibitors. […] NSC86314 was previously shown to inhibit WNV and DENV2 replicons in cell-based assays with IC50 values of<50 μM. […]

The target of experiment [5] is T3, WNV NS2B-NS3pro (West Nile virus, UniProt P06935).
T3 construct: comprises an NS2B polypeptide that associates with a proteolytic N-terminal fragment of NS3 polypeptide (NS3pro); a proteolytic N-terminal fragment of NS3 polypeptide (NS3pro) to form NS2B-NS3pro
T3 sequence (P06935 1371-1501): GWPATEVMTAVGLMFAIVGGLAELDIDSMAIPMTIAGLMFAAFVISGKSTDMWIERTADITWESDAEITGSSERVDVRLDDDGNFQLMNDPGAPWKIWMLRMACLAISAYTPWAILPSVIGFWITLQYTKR
T3 sequence (P06935 1502-1679): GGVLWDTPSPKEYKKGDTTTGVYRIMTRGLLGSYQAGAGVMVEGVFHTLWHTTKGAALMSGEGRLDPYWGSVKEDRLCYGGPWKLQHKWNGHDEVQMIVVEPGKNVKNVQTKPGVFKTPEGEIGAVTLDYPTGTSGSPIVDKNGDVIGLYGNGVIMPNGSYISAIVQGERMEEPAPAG
As to the kind of experiment: Inhibition of NS2B-NS3pro proteolysis, WNV. Conditions: in vitro. Format: biochemical.
Source text: as §1

Experiment [6] concerns the target T1, ZIKV NS2B-NS3pro. In words: Inhibition of ssRNA binding to NS2B-NS3pro by inhibitors (RNA FP assay). From the text:
The DNA constructs were cloned into pGEX6P1 plasmid using BamH1 and EcoR1 cleavage sites, resulting in fusion of a GST tag at the N-terminus of the NS2B cofactor. E. coli were transformed with the individual recombinant constructs, and protein production was induced and the cells were disrupted as described above. The supernatant fraction containing the GST-tagged constructs were loaded onto Protino Glutathione Agarose 4B beads and impurities were removed by washing with TBS. To cleave the GST tag from the viral protease, the beads were co-incubated with 3C protease. The NS2B-NS3pro constructs were then additionally purified by gel filtration on an S200 26/60 column equilibrated with TBS. Purity of the purified construct was analyzed using SDS-PAGE followed by Coomassie staining. Purified protease was concentrated to approximately 10 mg/ml using 10 kDa-cutoff concentrators, flash frozen in small aliquots, and stored at −80° C. […]
Fluorescence polarization assay of RNA/ssDNA binding to ZIKV NS2B-NS3 protease. Binding between purified recombinant ZIKV NS2B-NS3pro constructs and either RNA or ssDNA was assessed using a fluorescence polarization (FP) assay conducted in 0.1 ml of TBS containing 1 mM MgCl2 at 25° C. for 1 h. […] Polarization was monitored on a Bruker Daltonics fluorescence spectrophotometer. […]

T2 sequence (P29990 1346-1475): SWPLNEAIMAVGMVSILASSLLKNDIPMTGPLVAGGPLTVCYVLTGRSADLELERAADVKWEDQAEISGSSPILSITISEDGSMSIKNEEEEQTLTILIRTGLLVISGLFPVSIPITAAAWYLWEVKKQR
T2 sequence (P29990 1476-1653): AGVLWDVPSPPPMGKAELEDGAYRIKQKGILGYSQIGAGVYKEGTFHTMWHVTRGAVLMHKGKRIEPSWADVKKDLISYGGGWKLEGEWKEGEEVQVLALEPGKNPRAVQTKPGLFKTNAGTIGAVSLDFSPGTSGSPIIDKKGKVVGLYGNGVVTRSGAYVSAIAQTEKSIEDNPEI

As to `Nc1cc(N)c(N=Nc2ccc(S(=O)(=O)Nc3nccs3)cc2)cc1N=Nc1ccc(S(=O)(=O)Nc2nccs2)cc1` [NSC86314], the IC50 in experiment [1] and in experiment [3] was below 50 µM in each case. Further, the “IC50, NS2B-NS3pro from ZIKV” value in experiment [2] (in vitro) is given as “low to sub-micromolar”. The “IC50, NS2B-NS3pro from DENV” value in experiment [4] was “low to sub-micromolar”. For the same molecule, the “IC50, NS2B-NS3pro from WNV” value in experiment [5] was “low to sub-micromolar”.

Turning to `O=C(O)c1cc(/N=N/c2ccc(S(=O)(=O)Nc3nccs3)cc2)ccc1O` [NSC114428], the “Inhibition of proteolytic activity of ZIKV protease” value in experiment [2] (FIG. 7) is on record as “low μM range”. Besides, the “Inhibition of RNA binding” value in experiment [6] (FIG. 7) is reported as “low μM range”.

With aprotinin, in experiment [6] (closed conformation induced by substrate-mimicking inhibitor), the “RNA binding to purified NS2B-NS3pro-inhibitor complex” value is “no RNA binding”.
